Laboratory results taken from patent US3994885A, “Process for etherifying β-lactam antibiotics” (Eli Lilly and Company, priority 1975, dated 1976).
Values after ≈ are worked out from the molar mass of the structure shown.

Tests used:
[1] = tested on: Pseudomonas aeruginosa; test: Gradient Plate MIC vs gram-negative microorganisms
[2] = tested on: Escherichia coli; test: Gradient Plate MIC vs gram-negative microorganisms
[3] = tested on: Penicillin Resistant Staphylococcus aureus X400; test: Gradient Plate MIC vs penicillin resistant Staphylococcus aureus, isolate X400
[4] = tested on: Penicillin Resistant Staphylococcus aureus X1.1; test: Gradient Plate MIC vs penicillin resistant Staphylococcus aureus, isolate X1.1
[5] = tested on: Shigella sp.; test: Gradient Plate MIC vs gram-negative microorganisms
[6] = tested on: Penicillin Resistant Staphylococcus aureus V41; test: Gradient Plate MIC vs penicillin resistant Staphylococcus aureus, isolate V41
[7] = tested on: Salmonella heidelberg; test: Gradient Plate MIC vs gram-negative microorganisms; conditions: Salmonella enterica
[8] = tested on: Penicillin Resistant Staphylococcus aureus V32; test: Gradient Plate MIC vs penicillin resistant Staphylococcus aureus, isolate V32
[9] = tested on: Aerobacter aerogenes; test: Gradient Plate MIC vs gram-negative microorganisms; conditions: Klebsiella aerogenes
[10] = tested on: Serratia marcescens; test: Gradient Plate MIC vs gram-negative microorganisms
[11] = tested on: Penicillin Resistant Staphylococcus aureus V84; test: Gradient Plate MIC vs penicillin resistant Staphylococcus aureus, isolate V84
[12] = tested on: Klebsiella pneumoniae; test: Gradient Plate MIC vs gram-negative microorganisms
[13] = tested on: Salmonella gallinarum; test: In vitro antibiotic spectrum, disc-plate method; assay type: cell-based; conditions: Salmonella enterica, read-out: Diameter of Zone of Inhibition; for zone of inhibition at 500 µg/mL: concentration 0.5 mg/ml (ditto)
Text: In the following Table III the antibiotic activity of the compounds of the invention is further illustrated by the activity shown for representative compounds as determined by the standard disc-plate method.

[14] = tested on: Serratia marcescens; test: In vitro antibiotic spectrum, disc-plate method; assay type: cell-based; conditions: read-out: Diameter of Zone of Inhibition; for zone of inhibition at 500 µg/mL: concentration 0.5 mg/ml (ditto)
[15] = tested on: Sarcina lutea; test: In vitro antibiotic spectrum, disc-plate method; assay type: cell-based; conditions: Micrococcus luteus, read-out: Diameter of Zone of Inhibition; for zone of inhibition at 500 µg/mL: concentration 0.5 mg/ml (ditto)
[16] = tested on: Pseudomonas solanacearum; test: microbe, parasite or virus in culture; assay type: cell-based; conditions: Ralstonia solanacearum, read-out: Diameter of Zone of Inhibition
[17] = tested on: Bacillus subtilis; test: In vitro antibiotic spectrum, disc-plate method; assay type: cell-based; conditions: read-out: Diameter of Zone of Inhibition; for zone of inhibition at 500 µg/mL: concentration 0.5 mg/ml (ditto)
[18] = tested on: Proteus vulgaris; test: In vitro antibiotic spectrum, disc-plate method; assay type: cell-based; conditions: read-out: Diameter of Zone of Inhibition; for zone of inhibition at 500 µg/mL: concentration 0.5 mg/ml
[19] = tested on: Klebsiella pneumoniae; test: In vitro antibiotic spectrum, disc-plate method; assay type: cell-based; conditions: read-out: Diameter of Zone of Inhibition; for zone of inhibition at 500 µg/mL: concentration 0.5 mg/ml (ditto)
[20] = tested on: Escherichia coli; test: In vitro antibiotic spectrum, disc-plate method; assay type: cell-based; conditions: read-out: Diameter of Zone of Inhibition; for zone of inhibition at 500 µg/mL: concentration 0.5 mg/ml (ditto)
[21] = tested on: Staphylococcus aureus; test: In vitro antibiotic spectrum, disc-plate method; assay type: cell-based; conditions: read-out: Diameter of Zone of Inhibition; for zone of inhibition at 500 µg/mL: concentration 0.5 mg/ml
[22] = tested on: Mycobacterium avium; test: In vitro antibiotic spectrum, disc-plate method; assay type: cell-based; conditions: read-out: Diameter of Zone of Inhibition
[23] = concentration 0.1 mg/ml (ditto)

Structure (SMILES) | MIC [1] [µg/mL] | MIC [2] [µg/mL] | MIC ([3]; NS = absence of serum) [µg/mL] | MIC ([3]; S = presence of serum) [µg/mL] | MIC ([4]; NS = absence of serum) [µg/mL] | MIC ([4]; S = presence of serum) [µg/mL] | MIC [5] [µg/mL] | MIC ([6]; NS = absence of serum) [µg/mL] | MIC ([6]; S = presence of serum) [µg/mL] | MIC [7] [µg/mL] | MIC ([8]; NS = absence of serum) [µg/mL] | MIC ([8]; S = presence of serum) [µg/mL] | MIC [9] [µg/mL] | MIC [10] [µg/mL] | MIC ([11]; NS = absence of serum) [µg/mL] | MIC ([11]; S = presence of serum) [µg/mL] | MIC [12] [µg/mL] | zone of inhibition at 500 µg/mL [13] [mm] | zone of inhibition at 500 µg/mL [14] [mm] | zone of inhibition at 500 µg/mL [15] [mm] | also measured
COC1(NC(=O)C(O)c2ccccc2)C(=O)N2C(C(=O)O)=C(CSc3nnnn3C)CS[C@@H]21 (stereo partly shown) [A, 7-methoxy-7-mandelamido-3-(1-methyl-1H-tetrazole-5-ylthiomethyl)-3-cephem-4-carboxylic acid] | > 200 | 2.5 (≈ 5.08 µM) | 16.6 (≈ 33.7 µM) | 15.4 | 0.5 (≈ 1.02 µM) | < 0.1 | 2 (≈ 4.06 µM) | 4.2 (≈ 8.53 µM) | 6.7 | 0.6 (≈ 1.22 µM) | 4.5 (≈ 9.14 µM) | 7.6 | 0.7 (≈ 1.42 µM) | 3.4 (≈ 6.9 µM) | 3.1 (≈ 6.29 µM) | 2 | 0.6 (≈ 1.22 µM) |  |  |  | 
COC1(NC(=O)Cc2cccs2)C(=O)N2C(C(=O)O)=C(CSc3nnnn3C)CS[C@@H]21 (stereo partly shown) [B, 7-methoxy-7-[2-(2-thienyl)acetamido]-3-(1-methyl-1H-tetrazol-5-ylthiomethyl)-3-cephem-4-carboxylic acid] | > 200 | 7.9 (≈ 16.4 µM) | 10 (≈ 20.7 µM) | 9.5 | 0.4 (≈ 0.829 µM) | 0.5 | 6.6 (≈ 13.7 µM) | 1.5 (≈ 3.11 µM) | 1.1 | 0.9 (≈ 1.87 µM) | 1.8 (≈ 3.73 µM) | 2 | 3.5 (≈ 7.25 µM) | 5.4 (≈ 11.2 µM) | 0.6 (≈ 1.24 µM) | 1 | 0.5 (≈ 1.04 µM) |  |  |  | 
COC1(NC(=O)Cn2cnnn2)C(=O)N2C(C(=O)O)=C(CSc3nnc(C)s3)CS[C@@H]21 (stereo partly shown) [C, 7-[2-(1-tetrazolyl)acetamido]-7-methoxy-3-(5-methyl-1,3,4-thiadiazol-2-ylthiomethyl)-3-cephem-4-carboxylic acid] |  |  |  |  |  |  |  |  |  |  |  |  |  |  |  |  |  | 26 | 19 | 23 | zone of inhibition at 500 µg/mL [16]: 16 mm; zone of inhibition at 500 µg/mL [17]: 25 mm; zone of inhibition at 500 µg/mL [18]: 21 mm; zone of inhibition at 500 µg/mL [19]: 19 mm; zone of inhibition at 500 µg/mL [20]: 23 mm; zone of inhibition at 500 µg/mL [21]: 24 mm; zone of inhibition at 500 µg/mL ([22]; concentration 0.5 mg/ml (ditto)): 10 mm
COC1(NC(=O)Cn2cnnn2)C(=O)N2C(C(=O)O)=C(COC(C)=O)CSC21 (stereo not shown) [D, 7-[2-(1-Tetrazolyl)acetamido]:7:methoxy-3-acetoxymethyl-3-cephem-4-carboxylic acid] |  |  |  |  |  |  |  |  |  |  |  |  |  |  |  |  |  | 25 | 17 | 23 | zone of inhibition at 500 µg/mL [16]: 23 mm; zone of inhibition at 500 µg/mL [17]: 24 mm; zone of inhibition at 500 µg/mL [18]: 18 mm; zone of inhibition at 500 µg/mL [19]: 17 mm; zone of inhibition at 500 µg/mL [20]: 20 mm; zone of inhibition at 500 µg/mL [21]: 24 mm; zone of inhibition at 5000 µg/mL ([22]; concentration 5.0 mg/ml): 20 mm
COC1(NC(=O)C(O)c2ccccc2)C(=O)N2C(C(=O)O)=C(CSc3nnc(C)s3)CS[C@@H]21 (stereo partly shown) [E, 7-methoxy-7-mandelamido-3-(5-methyl-1,3,4-thiadiazol-2-ylthiomethyl)-3-cephem-4-carboxylic acid] |  |  |  |  |  |  |  |  |  |  |  |  |  |  |  |  |  |  |  |  | zone of inhibition at 1000 µg/mL ([13]; concentration 1.0 mg/ml): 20 mm; zone of inhibition at 1000 µg/mL ([14]; concentration 1.0 mg/ml): 18 mm; zone of inhibition at 100 µg/mL [15, 23]: 24 mm; zone of inhibition at 1000 µg/mL [16]: 16 mm; zone of inhibition at 100 µg/mL [17, 23]: 22 mm; zone of inhibition at 100 µg/mL ([18]; concentration 0.1 mg/ml): 18 mm; zone of inhibition at 100 µg/mL [19, 23]: 16 mm; zone of inhibition at 100 µg/mL ([20]; concentration 0.1 mg/ml): 22 mm; zone of inhibition at 100 µg/mL ([21]; concentration 0.1 mg/ml): 25 mm; zone of inhibition at 1000 µg/mL ([22]; concentration 1.0 mg/ml): 15 mm
